# Source: publication PMC7497240 (Chembiochem, 2020)
# pIC50: −log10 of the molar value.
# Biological target: T1, ABCG2 (Homo sapiens, UniProt Q9UNQ0)
# T1 sequence (Q9UNQ0 1-655): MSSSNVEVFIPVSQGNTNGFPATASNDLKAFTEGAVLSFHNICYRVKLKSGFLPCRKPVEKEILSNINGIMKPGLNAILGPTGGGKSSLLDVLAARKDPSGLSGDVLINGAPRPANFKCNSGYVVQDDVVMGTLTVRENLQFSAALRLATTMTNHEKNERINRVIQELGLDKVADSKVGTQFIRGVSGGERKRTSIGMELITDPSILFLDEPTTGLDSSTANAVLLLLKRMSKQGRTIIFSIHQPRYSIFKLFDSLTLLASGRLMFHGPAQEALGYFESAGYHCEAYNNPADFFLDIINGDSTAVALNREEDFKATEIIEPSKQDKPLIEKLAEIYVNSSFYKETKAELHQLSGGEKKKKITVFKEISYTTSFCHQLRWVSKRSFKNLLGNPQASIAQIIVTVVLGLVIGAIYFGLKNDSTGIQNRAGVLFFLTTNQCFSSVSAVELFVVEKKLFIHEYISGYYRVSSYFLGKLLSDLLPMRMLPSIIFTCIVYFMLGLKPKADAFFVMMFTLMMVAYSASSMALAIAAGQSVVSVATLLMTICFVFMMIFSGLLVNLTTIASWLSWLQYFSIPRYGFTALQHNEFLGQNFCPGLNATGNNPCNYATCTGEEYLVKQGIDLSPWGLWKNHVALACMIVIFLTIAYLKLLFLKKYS
# Test: Hoechst […] accumulation assay in ABCG2-transfected MDCK II BCRP cells
# Type: cell-based
structure (smiles),measurement,value
"O=C1NC(=O)c2c1c1c3ccccc3[nH]c1c1[nH]c3ccccc3c21 [compound 8, arcyriaflavin A]",pIC50,5.05
